Experimental data as given in patent publication US20260297092A1, “PYRAZOLOPYRIMIDINE DERIVATIVES AS INHIBITORS OF NLRP3” (Takeda Pharmaceutical Company Limited, priority 2023, published 2026).

Columns and labels:
[1] = tested on: NLRP3 inflammasome (IL-1β production in THP-1 cells); test: IL-1β TR-FRET Assay (percentage of inhibition at 300 nM, 6 μM or 10 μM); assay type: cell-based, human; details: Homo sapiens, LPS priming, ATP activation; for inhibition at 0.3 µM: THP-1, 300 nM, read-out: IL-1β inhibitory rate at 300 nM (%)
Method in brief: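 THP-1 cells were differentiated with 25 ng/mL IFN-γ for 24 h, primed with 50 ng/mL LPS in serum-free medium for 24 h, then given compound for 30 min before 20 mM ATP for 2 h. Supernatant IL-1β was measured by HTRF after 16-24 h at room temperature. Inhibition was normalized between DMSO (high) and 3 μM MCC-950 (low).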

[2] = tested on: TNF-α (NF-κB pathway, THP-1 cells); test: TNF-α Assay (IC50); assay type: cell-based, human; details: Homo sapiens, 600 ng/mL LPS, 3 hours
Method in brief: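 THP-1 cells differentiated to macrophages with 25 ng/mL IFN for 24 h, plated 40,000/well in serum-free medium, preincubated with compounds 30 min at 37 °C, then stimulated with 600 ng/mL LPS for 3 h. Supernatant TNF-α measured by ELISA; IC50 from four-parameter logistic fit, 100% inhibition defined by TPCA-1.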

Compound | inhibition at 0.3 µM [1] | IC50 [2] | inhibition at 6 µM ([1]; THP-1, 6 μM, read-out: IL-1β inhibitory rate at 6 μM (%))
Cc1cc(C)c(-n2cc3c(=O)[nH]c(-c4ccncn4)nc3n2)c(O)c1 [Example 2, 2-(2-hydroxy-4,6-dimethylphenyl)-6-(pyrimidin-4-yl)-2,5-dihydro-4H-pyrazolo[3,4-d]pyrimidin-4-one] | 100% | > 30 µM | –
Cc1cc(C)c(-n2cc3c(=O)[nH]c(C)nc3n2)c(O)c1 [Example 74, 2-(2-hydroxy-4,6-dimethylphenyl)-6-methyl-2,5-dihydro-4H-pyrazolo[3,4-d]pyrimidin-4-one] | 99% | > 30 µM | –
CCOc1nc2nn(-c3ncc(Br)cc3Br)cc2c(=O)[nH]1 [Example 161, 2-(3,5-dibromopyridin-2-yl)-6-ethoxy-2,5-dihydro-4H-pyrazolo[3,4-d]pyrimidin-4-one] | 97% | > 30 µM | –
Cc1cc(C2CC2)cc(C)c1-n1cc2c(=O)[nH]c([C@H]3C[C@@H](F)C3)nc2n1 [Example 249, 2-(4-cyclopropyl-2,6-dimethylphenyl)-6-[(1s,3s)-3-fluorocyclobutyl]-2,5-dihydro-4H-pyrazolo[3,4-d]pyrimidin-4-one] | – | > 30 µM | 98%
Cc1ccc(-n2cc3c(=O)[nH]c(OCC(C)(F)F)nc3n2)c(O)c1 [Example 86, 6-(2,2-difluoropropoxy)-2-(2-hydroxy-4-methylphenyl)-2,5-dihydro-4H-pyrazolo[3,4-d]pyrimidin-4-one] | 85% | > 30 µM | –
